Legend:
AOS-1 T cells = assay: 4-hour apoptosis assay with 10 nM rimiducid on AOS-1 T cells sorted by CD19 intensity; type: cell-based, human; conditions: for CD19+ specific killing: low-CD19 sorted cells; for median killing efficacy: 10 nM, 4 hours
Experimental: To measure apoptosis 5×10^5 cells were plated per 48-well, and rimiducid was added at a concentration of 10 nM in a 4-hour assay. Phenotyping and functional assays (e.g., apoptosis) were performed by flow cytometry, qPCR and Western blot before and after T cell reactivation using anti-CD3/anti-CD28 antibodies. The phenotype of the cells was determined by staining cells for flow cytometry analysis with anti-CD3, anti-CD4, anti-CD8, anti-CD19, anti-CD45RA, anti-CD45RO, and anti-CCR7 antibodies. Terminal effector memory cells are defined as CD45RA^+CD45RO^−CCR7^−. T effector memory cells are defined as CD45RA^−CD45RO^+CCR7^−. T central memory cells are defined as CD45RA^−CD45RO^+CCR7^+. Naïve T cells are defined as CD45RA^+CD45RO^−CCR7^+. Diversity of the T cell receptor repertoire was assessed by flow cytometry.

EGFPluc+ iC9-T cells = assay: T cell bioluminescence (IVIS) in NSG mice after rimiducid; type: in vivo
Experimental: (§1) In vivo studies were performed by i.v. injection of control or gene-modified T cells co-expressing luciferase into NSG mice. 1×10^7 EGFPluc+ iC9-T cells were infused into NSG mice. T cell bioluminescence was measured at 2 and 24 hours after infusion, followed by i.p. injection of a titrated dose of rimiducid or placebo (control drug). The animals were administered either control drug (temsirolimus; 1 mg/kg), rimiducid (0.001-1 mg/kg), or vehicle. Remaining T cell bioluminescence was measured at 6, 24 and 48 hours after drug administration. Bioluminescent imaging and flow cytometry were performed to assess in vivo depletion following iC9 activation.
The maximal elimination effect in the kill switch induced by rimiducid was reached 24 hours post drug administration. The values for average radiance were normalized to the initial radiance in each mouse using the formula: D Average radiance=100*[Timepoint “X” radiance]/[Timepoint “0” radiance]. Error bars represents S.E.M. Two-way ANOVA test was used to assess statistical significance of differences in T cell radiance between multiple groups at different time points.

[1] = system: CD3+CD19+ cells (iC9+ T cells); assay: flow cytometric analysis of cells harvested from spleens 48 h post drug treatment; type: in vivo, NSG mice; conditions: for reduction of CD3+CD19+ cells in spleen: 48 h, compared to vehicle
Experimental: as §1
FIG. 18 depicts a flow cytometric analysis of cells harvested from spleens 48 h post drug treatment.

CD3+CD19+ T cells = assay: rimiducid treatment of patients engrafted with AOS-1 to control GvHD; type: in vivo, human
Experimental: Engraftment and persistence of the donor modified T cells were measured by co-expression of CD3 and CD19 by flow cytometry. Endogenous and gene-modified T cells were also phenotyped for CD4:CD8 ratios, memory cell composition (TN, TCM, TEM, TEMRA; CD45RA and CD62L) and T cell receptor Vβ diversity.

[2] = system: WT1, PRAME, MAGE, NE and PR3; assay: IFN-γ ELIspot for LAA-specific T cells against peptide pools; type: cell-based, human; conditions: 10 nM rimiducid
Experimental: PBMCs were mixed with pre-warmed (37° C.) cell culture media and centrifuged cells at […] for 10′ at 4° C. Cells were resuspended and counted using Cellometer. Cells were then centrifuged again at 1200 rpm for 10′. The cells were then resuspended in culture media at a concentration of 1×10^6/mL and 100 μL were added per well. 100 μL of 2X peptide stock or PHA were added to the desired wells. The plates were mixed gently for 2′. The plates were transferred to a 37° C. incubator with 5% CO2 and incubated for 18-24 hours. 100 μL capture anti-IFNγ antibody was added to each PBS-pre wetted well. The plates were then incubated at 4±3° C. overnight. After incubation the plates were washed 3 times with 200 μL D-PBS. Unbound sites were blocked with 100 μL D-PBS containing 10% culture media for 120+15 minutes at room temperature in a BSC. The plates were then washed 3 times with 200 μL D-PBS. 200 μL D-PBS were added into the wells. The plates were left at room temperature until the cells are ready. When cells were ready plates were removed from the incubator and the wells rinsed 2 times with tap water. The plates were then washed 5 times with D-PBS, containing 0.05% Tween 20. The wells and well bottoms were rinsed with distilled water. […] Plates were left to dry at room temperature before reading on an ELISpot reader.

AOS-1 cells = assay: speed of elimination of low-, medium- and high-CD19 populations in mice after rimiducid (FIG. 27); type: in vivo; conditions: 5 mg/kg rimiducid on day 0, 1.5×10^7 AOS-1 cells on day −1
From the text: Figures are means from 40 mice.
Further experiments looked at the speed of elimination of low-CD19, medium-CD19 and high-CD19 populations after administration of rimiducid.

[3] = system: genetically-modified T cells; assay: rimiducid dose that eliminates infused genetically-modified T cells; type: in vivo; conditions: cells infused at 1.5×10^7 cells/kg
[4] = human, in vivo; cited from earlier work

CC[C@H](C(=O)N1CCCC[C@H]1C(=O)O[C@H](CCc1ccc(OC)c(OC)c1)c1cccc(OCC(=O)NCCNC(=O)COc2cccc([C@@H](CCc3ccc(OC)c(OC)c3)OC(=O)[C@@H]3CCCCN3C(=O)[C@@H](CC)c3cc(OC)c(OC)c(OC)c3)c2)c1)c1cc(OC)c(OC)c(OC)c1 (relative stereo) [rimiducid, 2-Piperidinecarboxylic acid, 1-[(2S)-1-oxo-2-(3,4,5-trimethoxyphenyl)butyl]-, 1,2-ethanediylbis[imino(2-oxo-2,1-ethanediyl)oxy-3,1-phenylene[(1R)-3-(3,4-dimethoxyphenyl)propylidene]] ester, [2S-[1(R*),2R*[S*[S*[1(R*),2R*]]]]]-(9CI)]
apoptosis (AOS-1 T cells; all fractions after reactivation with anti-CD3/anti-CD28): over 90%
cells gone through apoptosis (AOS-1 T cells; high MFI of CD19 cells, 10 nM rimiducid, within 4 hours): more than 95%
CD19+ specific killing (AOS-1 T cells; after activation in vitro): 97%
CD19+ specific killing (AOS-1 T cells; before activation): 46%
median killing efficacy (AOS-1 T cells; sorted high CD19 cells): 92%
median killing efficacy (AOS-1 T cells; sorted low CD19 cells): 69%
median killing efficacy (AOS-1 T cells; sorted medium CD19 cells): 87%
killing (AOS-1 T cells; unstimulated high iC9-ΔCD19 cells): 86%
killing (AOS-1 T cells; unstimulated low iC9-ΔCD19 cells): 50%
killing (AOS-1 T cells; unstimulated medium iC9-ΔCD19 cells): 76%
reduction of relative total flux (EGFPluc+ iC9-T cells; 0.01 mg/kg i.p., 6-hour): 82.5%
reduction of relative total flux (EGFPluc+ iC9-T cells; 0.01 mg/kg i.p., 24-hour): 90.5%
reduction of relative total flux (EGFPluc+ iC9-T cells; 0.01 mg/kg i.p., 48-hour): 90.5%
reduction of relative total flux (EGFPluc+ iC9-T cells; 0.1 mg/kg i.p., 6-hour): 92.5%
reduction of relative total flux (EGFPluc+ iC9-T cells; 0.1 mg/kg i.p., 24-hour): 95.5%
reduction of relative total flux (EGFPluc+ iC9-T cells; 0.1 mg/kg i.p., 48-hour): 95.3%
reduction of relative total flux (EGFPluc+ iC9-T cells; 1 mg/kg i.p., 6-hour): 96%
reduction of relative total flux (EGFPluc+ iC9-T cells; 1 mg/kg i.p., 24-hour): 98.1%
reduction of relative total flux (EGFPluc+ iC9-T cells; 1 mg/kg i.p., 48-hour): 98.1%
time at which maximal elimination effect was reached (EGFPluc+ iC9-T cells; post drug administration): 24 h
reduction of CD3+CD19+ cells in spleen ([1]; 0.01 mg/kg): 99.6%
reduction of CD3+CD19+ cells in spleen ([1]; 0.1 mg/kg): 98.6%
reduction of CD3+CD19+ cells in spleen ([1]; 1 mg/kg): 89.6%
MFI of CD19 in CD3+CD19+ cells ([1]; treated groups, down to 0.001 mg/kg): dose dependent decrease
course of CD3+CD19+ T cells and GvHD after rimiducid (CD3+CD19+ T cells; patients treated with rimiducid): recovered without further instances of GvHD
decrease of CD3+CD19+ T cells in the peripheral blood (CD3+CD19+ T cells; three patients with GvHD): 62±12%
LAA-reactivity on exposure to rimiducid [2]: greatly diminished
elimination of CD19-high cells (AOS-1 cells): eliminated within half an hour
elimination of CD19-low cells (AOS-1 cells): declined more slowly
elimination of CD19-medium cells (AOS-1 cells): fell to near-zero within an hour
dose that can eliminate cells [3]: 0.4 mg/kg
safety in healthy volunteers [4]: proven safe in healthy volunteers

From US20220002674A1, “T CELLS WITH SUICIDE SWITCH” (priority 2018, published 2022)
